Values quoted from earlier work in patent US20220054558A1, “COMPOSITIONS COMPRISING BACTERIAL STRAINS” (4D Pharma Research Limited, priority 2018, published 2022).

Tested on: C. difficile
Conditions: reference [19]

Compound: CCCCC(=O)O [Valeric acid]
- viability of C. difficile: reduce the viability
